The text below walks through data of PubChem BioAssay (NCI).

Common to all, as to experiment: growth of human tumour cells (NCI), 48 h
Test [1] has as its system 786-0 renal.
Test [2] concerns ACHN renal.
Test [3] deals with CCRF-CEM leukemia.
Test [4] concerns NCI-H23 lung.
Test [5] concerns RPMI-8226 leukemia.
The subject of test [6] is SK-MEL-2 melanoma.
Test [7] deals with SK-OV-3 ovarian.
In test [8] the test system is SN12C renal.
The test system of test [9] is U251 CNS.
The subject of test [10] is UACC-62 melanoma.

SMILES strings stand for the structures.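 Grown in 96-well plates, cells were treated for 48 hours with each compound at five concentrations. Insufficient inhibition: endpoint recorded as highest concentration tested. Abbreviation: GI50, concentration required for 50% inhibition of growth. At the TGI there is no net growth.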

With `COc1cc2c(cc1OCCCCn1c(-c3cccs3)nc3ccccc31)N=C[C@@H]1CCCN1C2=O`, the GI50 in test [1] is 1710 nM; in test [2], 2810 nM; in test [3] it was 247 nM; in test [4] it was 2050 nM; in test [5], 314 nM; in [6], 1470 nM. In addition, the GI50 was 3.32 µM in test [7], 2500 nM in [8], 1770 nM in [9] and 1570 nM in [10]. The TGI in test [1] was determined as 5.9 µM; in test [2] it was 7.73 µM; in [3], 1.37 µM; in test [4], 4.4 µM; in test [5] it was 1.62 µM; in test [6], 4.68 µM. Also, the TGI in test [7] is 9.19 µM; in test [8], 8.65 µM; in [9] it was 10.1 µM; in test [10], 3.08 µM.

As to `Fc1ccc(C2SCc3nc4ccccc4n32)cc1F` (centres undefined), the TGI was over 100 µM in [1]; over 100 µM in test [2]; 97 µM in test [3]; 81.9 µM in test [4]; 36.7 µM in [5]; 63.7 µM in [6]. The TGI in test [7], in [8], in test [9] and in [10] was over 100 µM in each case.

Consider `CC(=O)CC(=O)NC=O`, for which the TGI in test [1], in test [2], in test [3], in [4], in test [5] and in [6] was over 100 µM throughout. Further, the TGI in test [7], in test [8], in [9] and in [10] was over 100 µM in each case.

In the case of `CC1(C)OC2C(CO)OC(n3ccc(N)nc3=O)C2O1` (centres undefined), the TGI in test [1], in test [2], in test [3], in test [4], in test [5] and in test [6] was over 100 µM throughout. Moreover, the TGI in test [7], in test [8], in test [9] and in [10] was over 100 µM each time.

As to `CCCCN(CC)CCCCCCCCCCN1CCCc2cc(OC)ccc21`, the GI50 in [1] is 2030 nM; in [2], 3910 nM; in test [3], 3000 nM; in [4], 2160 nM; in test [5], 2150 nM; in [6], 1950 nM. The GI50 in test [7] is 5.19 µM; in test [8], 3360 nM; in test [9], 2930 nM; in test [10], 2030 nM. Moreover, the TGI in test [1] is 3.94 µM; in [2] it was 14.9 µM; in [3], 12.5 µM; in test [4], 6.09 µM; in test [5], 4.79 µM; in test [6], 4.15 µM. The TGI worked out at 21 µM in [7], 15.3 µM in test [8], 7.56 µM in test [9] and 5.31 µM in [10].

For the molecule `O=C([O-])CCc1ccccc1.O=C([O-])CCc1ccccc1.O=C([O-])CCc1ccccc1.O=C([O-])CCc1ccccc1.[Mo+2].[Mo+2]`, the GI50 in [1], in test [2], in test [3], in test [4], in [5] and in [6] was over 100000 nM throughout. Moreover, the GI50 was over 100 µM in test [7], over 100000 nM in test [8], over 100000 nM in test [9] and over 100000 nM in test [10]. The TGI in test [1], in [2], in test [3], in test [4], in [5] and in test [6] was over 100 µM each time. Moreover, the TGI in test [7], in test [8], in test [9] and in [10] was over 100 µM in each case.

Turning to `C=C1c2[nH]c3ccccc3c2CC(C(=O)O)N1C(O)c1ccc(S(=O)(=O)O)cc1` (centres undefined), the TGI in test [1], in [2], in test [3], in test [4], in [5] and in test [6] was over 100 µM each time. In addition, the TGI in [7], in [8], in test [9] and in [10] was over 100 µM throughout.

As to `CC(C)OCc1cc(CN2CCN(c3cccc(Cl)c3)CC2)c(O)c2ncccc12`, the GI50 was 785 nM in [1]; 332 nM in test [2]; 383 nM in [3]; 1030 nM in [4]; 558 nM in test [5]; 1740 nM in test [6]. Moreover, the GI50 was 0.71 µM in test [7], 917 nM in test [8], 423 nM in [9] and 333 nM in test [10]. Besides, the TGI in [1] was determined as 9.56 µM; in test [2] it was 12.4 µM; in [3] it was 9.89 µM; in [4], 19 µM; in test [5], 13.3 µM; in test [6] it was 7.07 µM. The TGI turned out to be 12.2 µM in [7], 15.6 µM in [8], 11.9 µM in test [9] and 1.43 µM in [10].

With `CCC(C)CC(C)C(=O)c1c(O)ccn(O)c1=O` (centres undefined), the GI50 in test [1] was 3650 nM; in test [2] it was 775 nM; in test [3], 600 nM; in [4], 1980 nM; in test [5] it was 901 nM; in test [6], 3630 nM. In addition, the GI50 in [7] is 6.2 µM; in test [8], 1380 nM; in [9], 2140 nM; in test [10], 2270 nM. For the same molecule, the TGI in test [1] is over 100 µM; in test [2], over 100 µM; in test [3], over 100 µM; in test [4], over 100 µM; in [5], 36.8 µM; in test [6], 48.6 µM. Further, the TGI in test [7] is over 100 µM; in test [8], 16.2 µM; in [9] it was over 100 µM; in test [10] it was 6.74 µM.

Regarding `O=[N+]([O-])/C=C/c1cc2ccc3ccccc3c2[nH]1`, the TGI stood at 3.07 µM in [1]; 2.68 µM in [2]; 2.8 µM in test [3]; 5.07 µM in test [4]; 0.708 µM in [5]; 2.39 µM in test [6]. The TGI in test [7] is 17.2 µM; in test [8] it was 3.81 µM; in [9], 2.95 µM; in test [10], 3.51 µM.

Take `COc1cc2c3c(n(CCCN4CCCNCC4)c(=O)c2cc1OC)-c1cc2c(cc1C3=O)OCO2`: the GI50 was 268 nM in test [1]; 193 nM in [2]; 72.1 nM in test [3]; 346 nM in test [4]; 571 nM in [5]; 3700 nM in test [6]. Further, the GI50 in [7] was 4 µM; in test [8] it was 239 nM; in test [9], 181 nM; in test [10], 515 nM. Moreover, the TGI in test [1] is 1.14 µM; in test [2], 0.751 µM; in test [3], 8.06 µM; in test [4], 2.57 µM; in [5], 2.1 µM; in test [6], 17.6 µM. Moreover, the TGI worked out at 15.5 µM in test [7], 1.28 µM in test [8], 2.91 µM in test [9] and 6.04 µM in test [10].

On to `Cc1cc(C(O)(c2ccc(Nc3ccccc3)cc2)c2ccc(Nc3ccc(S(=O)(=O)O)cc3)cc2)ccc1N` (centres undefined), for which the GI50 in test [1] was 1020 nM; in test [2], 1290 nM; in test [3], 439 nM; in test [4], 1690 nM; in test [5], 571 nM; in test [6], 1550 nM. Further, the GI50 in [7] is 2.53 µM; in test [8], 1820 nM; in [9] it was 772 nM; in test [10] it was 499 nM. In addition, the TGI in test [1] is 2.27 µM; in test [2] it was 2.7 µM; in [3], over 100 µM; in test [4], 3.56 µM; in test [5] it was 2.99 µM; in test [6] it was 4.68 µM. Besides, the TGI was determined as 5.92 µM in [7], 9.12 µM in [8], 2.05 µM in test [9] and 2.12 µM in test [10].

As for `O=C1c2cccnc2C(=O)c2c1c(C(=O)OCCc1ccccn1)c1ccccn21`, the GI50 in test [1] is 252 nM; in [2] it was under 10 nM; in test [3], 1460 nM; in test [4] it was 21.8 nM; in test [5] it was 219 nM; in test [6] it was 351 nM. The GI50 in test [7] is 0.0539 µM; in test [8], 26.1 nM; in test [9], 21.6 nM; in test [10], 20.2 nM. Also, the TGI in test [1] is 1.26 µM; in test [2], 1.22 µM; in test [3], over 25.9 µM; in test [4], 1.06 µM; in test [6], 3.47 µM; in test [7], 1.17 µM. For the same molecule, the values for the TGI in [8], in [9] and in [10] were 1.59 µM, 0.261 µM and 0.219 µM, respectively.

Turning to `Oc1ccc(Cc2ccc(O)c(C3CC(c4ccc(Cl)cc4)=NN3)c2)cc1C1CC(c2ccc(Cl)cc2)=NN1` (centres undefined), the GI50 in test [1] was 3530 nM; in test [2], 3100 nM; in test [3], 1940 nM; in test [4], 3070 nM; in [5], 3890 nM; in test [6], 2960 nM. Further, the GI50 is 3.61 µM in test [7], 2790 nM in test [8], 2060 nM in [9] and 3140 nM in test [10]. The TGI in [1] was over 40.2 µM; in test [2], over 31.8 µM; in [3] it was over 100 µM; in test [4] it was over 37.1 µM; in [5], over 100 µM; in test [6], 10.5 µM. The TGI in test [7] was over 100 µM; in [8] it was over 37.3 µM; in test [9] it was 33.6 µM; in [10], 13.4 µM.

For the molecule `CCCCCCc1cc2cc(-c3csc(/C=C/c4ccccc4)n3)c(=O)oc2cc1O`, the GI50 is 4620 nM in test [1]; 4190 nM in test [2]; 4200 nM in [3]; 3090 nM in test [4]; 4840 nM in test [5]; 18100 nM in [6]. In addition, the GI50 in [7] is 28.1 µM; in test [8] it was 2120 nM; in test [9], 2910 nM; in test [10], 13900 nM. In addition, the TGI in test [1] stood at 17.1 µM; in test [2] it was 15.2 µM; in test [3] it was 15 µM; in [4] it was 10.1 µM; in test [5] it was 19.7 µM; in test [6], 41.1 µM. Moreover, the TGI in test [7] is 80.3 µM; in test [8], 4.43 µM; in test [9], 10.5 µM; in [10] it was 28.1 µM.

As to `COc1ccc(C2CC(c3ccc4ccccc4c3)=NN2c2nc(O)c(C3=c4cc(OC)ccc4=NC3=O)s2)cc1` (centres undefined), the GI50 is 28 nM in test [1]; 67.8 nM in test [2]; 284 nM in test [3]; 34.8 nM in test [4]; 270 nM in test [5]; 178 nM in [6]. The GI50 in [7] was 0.13 µM; in test [8] it was 166 nM; in test [9], 32.3 nM; in test [10], 121 nM. The TGI is 0.0869 µM in test [1]; 0.419 µM in test [2]; over 43.3 µM in test [3]; 0.191 µM in [4]; 3.93 µM in test [5]; 0.497 µM in test [6]. The TGI in test [7] was 0.431 µM; in [8], 0.464 µM; in test [9], 0.0975 µM; in test [10] it was 0.368 µM.

Take `CCOc1cc(/C=C/C(=O)C(C(=O)/C=C/c2ccc(OC(=O)CNc3nnc(C)s3)c(OCC)c2)C(=O)CNc2nnc(C)s2)ccc1OC(=O)CNc1nnc(C)s1`: the GI50 was 2160 nM in test [1]; 1770 nM in test [2]; 251 nM in [3]; 1970 nM in test [4]; 340 nM in test [5]; 2020 nM in test [6]. Moreover, the GI50 was 4.15 µM in [7], 1860 nM in test [8], 976 nM in test [9] and 1430 nM in test [10]. The TGI in test [1] is 5.98 µM; in [2] it was 3.42 µM; in [3] it was 1.06 µM; in [4] it was 5.58 µM; in [5], over 100 µM; in test [6], 5 µM. Further, the TGI in [7] turned out to be 18.2 µM; in test [8], 6.4 µM; in [9], 2.89 µM; in test [10], 2.8 µM.
